Publication PMC3741113, “De-Novo Design of Antimicrobial Peptides for Plant Protection” (PLoS ONE, 2013)
Ends that are not written are not given here.

Legend:
[1] = system: Clavibacter michiganensis ssp. michiganensis; details: Table 4, incubation period 2d; LB-medium, 27°C
[2] = system: Pseudomonas syringae pv. syringae; details: Table 4, incubation period 1d; LB-medium, 27°C
[3] = system: Pseudomonas syringae pv. tomato; details: Table 4, incubation period 1d; LB-medium, 27°C
Xanthomonas vesicatoria = details: Table 4, incubation period 2d; LB-medium, 27°C
[4] = system: Pectobacterium carotovorum ssp. carotovorum; details: Table 4, incubation period 1d; LB-medium, 27°C
Pseudomonas corrugata = details: Table 4, incubation period 2d; LB-medium, 27°C

Substance | MIC [1] [µg/mL] | MIC [2] [µg/mL] | MIC [3] [µg/mL] | MIC (Xanthomonas vesicatoria) [µg/mL] | MIC [4] [µg/mL] | MIC (Pseudomonas corrugata) [µg/mL]
KRRLALFRLFRLALKLVLKK-NH2 [SP13-11] | 2.5 | >10 | 2.5 | 2.5 | >10 | >10
RKKKLKIIKRLI-NH2 [SP1-7] | 2.5 | 0.1 |  | 1.0 | >10 | 0.5
LRFIKKILKKLI-NH2 [SP10-4] | 0.25 | 0.25 | 1.0 | 0.1 | 2.5 | 2.5
KRRLFLFRLFRLFLRLFLKK-NH2 [SP13-12] | 2.5 | >10 | 5.0 | 2.5 | >10 | 10
KRKKLLKRLL-NH2 [SP1-15] | 5.0 | 0.1 | 1.0 | 5.0 | >10 | <0.1
LRFLRRILRRLL-NH2 [SP10-8] | 0.5 | 0.5 | 1.0 | 0.5 | 2.5 | 0.5
KRRKLIKILKLIIKLIRKKR-NH2 [SP13-6] | 0.1 | 1.0 | 2.5 | 0.1 | >10 | 2.5
KKKKKKIIKKII-NH2 [SP1-22] | >10 | 2.5 | 1.0 | >10 | >10 | >10
LRFLKKILKKLF-NH2 [SP10-1] | 1.0 | 2.5 | 1.0 | 2.5 | 2.5 | 2.5
KRKKLLKRLI-NH2 [SP1-16] | >10 | 0.1 | 1.0 | 10 | >10 | 0.5
LRILRRLLRRLF-NH2 [SP10-7] | 5.0 | >10 | 1.0 | 5.0 | >10 | 2.5
KRRKLAFRLFRLFLKLVLKK-NH2 [SP13-14] | 0.5 | 5.0 | 2.5 | 0.25 | >10 | 2.5
KRRLILRILRLAIRILVKKR-NH2 [SP13-3] | 2.5 | >10 | 10 | 2.5 | >10 | >10
RKKRLRVVRRLV-NH2 [SP1-5] | >10 | >10 | 1.0 | >10 | >10 | 5.0
RKKKVKLLKRLV-NH2 [SP1-3] | >10 | 0.25 | 5.0 | >10 | >10 | 2.5
LRFARRALRRLF-NH2 [SP10-9] | 1.0 | 0.25 | 0.25 | 1.0 | 2.5 | 0.5
RKKKLKVVKRLV-NH2 [SP1-6] | 10 | 5.0 | 1.0 | >10 | >10 | >10
RKKKIKIIKRLI-NH2 [SP1-8] | 5.0 | 0.25 |  | 2.5 | >10 | 2.5
